This passage reports EC50, Emax and CLint scaled results from ChEMBL document CHEMBL5042488, “Synthesis, biological, and structural explorations of a series of μ-opioid receptor (MOR) agonists with high G protein signaling bias” (Eur J Med Chem, 2022).

For orientation: EC50 means the concentration at which the effect is half-maximal. As a reminder, the Emax is the greatest response seen or fitted, relative to the assay's reference.

The target of data set [1] is T1, Mu-type opioid receptor (Homo sapiens, UniProt P35372). The data set can be described thus: Agonist activity at mu opioid receptor (unknown origin) assessed as increase in cAMP level incubated for 40 mins by spectrophotometry. In kind it is functional. (In general: cAMP levels reflect the balance of adenylyl cyclase and phosphodiesterase activity.)
T1 sequence (P35372 whole entry): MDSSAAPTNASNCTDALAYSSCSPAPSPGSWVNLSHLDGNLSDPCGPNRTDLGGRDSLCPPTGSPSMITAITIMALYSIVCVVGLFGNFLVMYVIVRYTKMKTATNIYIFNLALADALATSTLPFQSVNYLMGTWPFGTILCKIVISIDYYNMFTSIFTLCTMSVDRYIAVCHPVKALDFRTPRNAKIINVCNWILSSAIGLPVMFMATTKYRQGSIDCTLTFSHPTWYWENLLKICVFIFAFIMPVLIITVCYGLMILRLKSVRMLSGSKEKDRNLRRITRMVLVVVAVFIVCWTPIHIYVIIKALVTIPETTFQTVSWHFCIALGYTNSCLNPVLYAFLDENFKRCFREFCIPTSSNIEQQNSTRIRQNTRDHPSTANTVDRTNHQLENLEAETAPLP
Data set [2] deals with T1, Mu-type opioid receptor. The data set can be described thus: Agonist activity at mu opioid receptor (unknown origin) assessed as maximal beta arrestin-2 recruitment incubated for 3 days by PathHunter assay relative to DAMGO. The class given is functional. As to conditions: time 3.0 day. (In general: Recruitment of arrestin is a read-out of receptor activation apart from second messengers.)

For data set [3], the target named is T1, Mu-type opioid receptor. The data set can be described thus: Agonist activity at mu opioid receptor (unknown origin) assessed as beta arrestin-2 recruitment incubated for 3 days by PathHunter assay. The class given is functional.
The target of data set [4] is T1, Mu-type opioid receptor. The data set can be described thus: Agonist activity at mu opioid receptor (unknown origin) assessed as maximal cAMP level incubated for 40 mins by spectrophotometry relative to DAMGO. In kind it is functional. Particulars: filed as agonist.
Data set [5] can be described thus: Metabolic stability in human liver microsomes assessed as intrinsic clearance preincubated for 10 mins followed by NADPH addition and measured after 60 mins by LC-MS/MS analysis. In kind it is ADME, Microsome. As to conditions: time 70 min, read-out: CLH. In general terms: Liver microsomes are vesicles of endoplasmic reticulum, rich in cytochrome P450 enzymes.

Regarding `FC1(F)CCc2c(csc2CNCC[C@@]2(c3ccccn3)CCOC3(CCOC3)C2)C1` (stereo not given in full), the results for the EC50 at Mu-type opioid receptor [1] and at Mu-type opioid receptor [3] were 0.5 nM and 69 nM, respectively. Further, the Emax on Mu-type opioid receptor [2] (filed as agonist) was 43.1%; on Mu-type opioid receptor [4] it was 101%.

Regarding `c1ccc([C@]2(CCNCc3ccc4ccccc4c3)CCOC3(CCOC3)C2)nc1` (stereo not given in full), the figures for the EC50 at Mu-type opioid receptor [1] and on Mu-type opioid receptor [3] were 174 nM and more than 30000 nM, respectively. The results for the Emax on Mu-type opioid receptor [2] and at Mu-type opioid receptor [4] were 1.1% and 124%, respectively.

`Fc1ccc(CNCC[C@@]2(c3ccccn3)CCOC3(CCOC3)C2)cc1Cl` (stereo not given in full): the results for the EC50 at Mu-type opioid receptor [1] and at Mu-type opioid receptor [3] were 26.5 nM and more than 30000 nM, respectively. The Emax at Mu-type opioid receptor [4] was determined as 92.3%.

In the case of `Fc1ccc([C@]2(CCNCc3scc4c3CCCC4)CCO[C@]3(CCOC3)C2)nc1`, the CLint scaled in data set [5] stood at 338 mL/min/kg. Further, the figures for the EC50 on Mu-type opioid receptor [1] and on Mu-type opioid receptor [3] were 0.2 nM and more than 30000 nM, respectively. The Emax on Mu-type opioid receptor [4] worked out at 99.5%.

With `Fc1ccc([C@]2(CCNCc3scc4c3CCC4)CCO[C@]3(CCOC3)C2)nc1`, the CLint scaled in data set [5] was found to be 108 mL/min/kg. Besides, the Emax on Mu-type opioid receptor [4] amounted to 95.1%.

Take `Cc1ccsc1CNCC[C@@]1(c2ccc(F)cc2)CCOC2(CCOC2)C1` (stereo not given in full): the EC50 was 4.1 nM at Mu-type opioid receptor [1] and more than 30000 nM at Mu-type opioid receptor [3]. The Emax on Mu-type opioid receptor [2] is 2.9%; on Mu-type opioid receptor [4] it was 61.2%.

With `FC1(F)Cc2csc(CNCC[C@@]3(c4ccccn4)CCOC4(CCCC4)C3)c2C1`, the figures for the EC50 on Mu-type opioid receptor [1] and at Mu-type opioid receptor [3] were 0.1 nM and 10 nM, respectively. In addition, the figures for the Emax at Mu-type opioid receptor [2] and at Mu-type opioid receptor [4] were 9.8% and 96.9%, respectively.

As to `c1ccc([C@]2(CCNCc3scc4c3COC4)CCOC3(CCOC3)C2)nc1` (stereo not given in full), the EC50 at Mu-type opioid receptor [1] was 14.1 nM; on Mu-type opioid receptor [3], more than 30000 nM. The Emax at Mu-type opioid receptor [4] amounted to 90.4%.

For `Cc1cc(C)cc(CNCC[C@@]2(c3ccccn3)CCOC3(CCOC3)C2)c1` (stereo not given in full), the values for the EC50 on Mu-type opioid receptor [1] and at Mu-type opioid receptor [3] were 11.6 nM and more than 30000 nM, respectively. Further, the figures for the Emax at Mu-type opioid receptor [2] and on Mu-type opioid receptor [4] were 4.6% and 96.6%, respectively.

Take `COc1ccsc1CNCC[C@@]1(c2ccccn2)CCO[C@@]2(CCOC2)C1`: on Mu-type opioid receptor [3], the EC50 was more than 30000 nM. Also, the Emax at Mu-type opioid receptor [4] came out at 66.3%.

Consider `Fc1ccc([C@]2(CCNCc3cncc(Cl)c3)CCOC3(CCOC3)C2)cc1` (stereo not given in full), for which the EC50 at Mu-type opioid receptor [1] was 12.8 nM; on Mu-type opioid receptor [3], more than 30000 nM. Moreover, the Emax on Mu-type opioid receptor [4] stood at 90.8%.

As for `Clc1ccc(CNCC[C@@]2(c3ccccn3)CCOC3(CCOC3)C2)s1` (stereo not given in full), the EC50 was 22.3 nM on Mu-type opioid receptor [1] and more than 30000 nM at Mu-type opioid receptor [3]. The Emax at Mu-type opioid receptor [2] amounted to 2.3%; on Mu-type opioid receptor [4], 93.3%.

In the case of `Fc1ccc([C@]2(CCNCc3scc4c3COC4)CCOC3(CCOC3)C2)cc1` (stereo not given in full), the CLint scaled in data set [5] came out at 191 mL/min/kg. Further, the EC50 was 6.8 nM on Mu-type opioid receptor [1] and more than 30000 nM at Mu-type opioid receptor [3].

With `Fc1ccc([C@]2(CCNCc3scc4c3CCC4)CCOC3(CCOC3)C2)cc1` (stereo not given in full), the CLint scaled in data set [5] came out at 157 mL/min/kg. The EC50 at Mu-type opioid receptor [1] was 0.07 nM; on Mu-type opioid receptor [3] it was more than 30000 nM.

Take `c1ccc([C@]2(CCNCC3CCCCC3)CCOC3(CCOC3)C2)nc1` (stereo not given in full): the figures for the EC50 at Mu-type opioid receptor [1] and at Mu-type opioid receptor [3] were 61.6 nM and more than 30000 nM, respectively. For the same molecule, the Emax at Mu-type opioid receptor [4] was 59.2%.

Regarding `Fc1ccc([C@]2(CCNCc3scc4c3CCC4)CCOC3(CCOCC3)C2)nc1`, the results for the EC50 on Mu-type opioid receptor [1] and at Mu-type opioid receptor [3] were 178 nM and 725 nM, respectively. The Emax on Mu-type opioid receptor [2] (filed as agonist) and at Mu-type opioid receptor [4] was 125% in each case.

Regarding `C[C@@H](Cc1ccsc1)NC(=O)NC[C@H](Cc1ccc(O)cc1)N(C)C`, the CLint scaled in data set [5] was less than 8.6 mL/min/kg. For the same molecule, the Emax at Mu-type opioid receptor [2] was determined as 5%; at Mu-type opioid receptor [4], 89.2%.

As to `Cc1cccc(CNCC[C@@]2(c3ccccn3)CCOC3(CCOC3)C2)c1` (stereo not given in full), in data set [5], the CLint scaled is 8.8 mL/min/kg. Moreover, the EC50 is 6.1 nM on Mu-type opioid receptor [1] and more than 30000 nM on Mu-type opioid receptor [3]. Further, the Emax at Mu-type opioid receptor [4] was found to be 88.9%.

Turning to `Clc1cccc(CNCC[C@@]2(c3ccccn3)CCOC3(CCOC3)C2)c1` (stereo not given in full), in data set [5], the CLint scaled was 22.1 mL/min/kg. Moreover, the EC50 on Mu-type opioid receptor [1] is 2.6 nM; on Mu-type opioid receptor [3], more than 30000 nM. In addition, at Mu-type opioid receptor [4], the Emax turned out to be 86.4%.
